Source: BindingDB's records for doi:10.1039/d3md00036b (n/a, 2023)
pKi: −log10 of the molar value.

Molecular target: Metallo-beta-lactamase type 2 (Klebsiella pneumoniae, UniProt C7C422)
Test: Binding affinity to bacterial NDM-1 (unknown origin) assessed as inhibition constant

Metallo-beta-lactamase type 2, sequence (C7C422 whole entry): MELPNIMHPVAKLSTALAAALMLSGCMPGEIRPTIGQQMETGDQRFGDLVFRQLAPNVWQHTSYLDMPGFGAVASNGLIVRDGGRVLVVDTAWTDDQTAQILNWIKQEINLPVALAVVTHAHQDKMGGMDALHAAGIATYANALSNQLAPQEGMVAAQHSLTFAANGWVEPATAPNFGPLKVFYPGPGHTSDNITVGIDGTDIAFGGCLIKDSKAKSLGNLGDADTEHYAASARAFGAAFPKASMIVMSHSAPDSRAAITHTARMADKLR

CN1CCN(C(=S)N/N=C/c2ccccc2O)CC1
pKi: 9.36
